One may read the IC50 as the midpoint of a concentration-inhibition curve. A lower IC50 goes with inhibition by little substance.

Structures can show the parent of a compound that is named as a salt.

T1 sequence (P03951 388-625 limits assumed): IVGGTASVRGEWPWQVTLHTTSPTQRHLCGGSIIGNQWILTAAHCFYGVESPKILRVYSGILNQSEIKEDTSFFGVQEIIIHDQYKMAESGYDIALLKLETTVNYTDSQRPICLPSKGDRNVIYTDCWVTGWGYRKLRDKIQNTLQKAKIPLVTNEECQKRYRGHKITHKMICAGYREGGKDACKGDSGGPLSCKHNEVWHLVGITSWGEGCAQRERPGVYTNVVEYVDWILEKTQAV
T1 sequence (P03951 19-387 partner limits assumed): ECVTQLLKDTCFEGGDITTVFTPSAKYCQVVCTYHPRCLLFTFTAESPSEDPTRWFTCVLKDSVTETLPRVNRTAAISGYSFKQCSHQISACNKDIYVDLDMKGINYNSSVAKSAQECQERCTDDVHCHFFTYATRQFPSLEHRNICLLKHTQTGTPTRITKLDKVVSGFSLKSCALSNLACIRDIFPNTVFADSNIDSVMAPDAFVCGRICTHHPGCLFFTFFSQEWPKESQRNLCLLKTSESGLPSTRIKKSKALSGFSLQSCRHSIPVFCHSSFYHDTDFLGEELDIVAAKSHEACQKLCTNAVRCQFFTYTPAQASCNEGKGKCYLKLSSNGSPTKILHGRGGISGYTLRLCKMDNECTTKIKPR

The test concerns the target T1, human factor XIa (Homo sapiens, UniProt P03951).
T1 construct: purchased Kordia
The test can be described thus: Measurement of FXIa inhibition (fluorogenic peptide substrate Boc-Glu(OBzl)-Ala-Arg-AMC). It is filed as biochemical. The following applies: factor XIa from Kordia, 15 min preincubation, 30 min at 22° C., fluorescence. Here is the method:
The factor XIa inhibition of the inventive substances is determined using a biochemical test system which utilizes the reaction of a peptidic factor XIa substrate to determine the enzymatic activity of human factor XIa. Here, factor XIa cleaves from the peptic factor XIa substrate the C-terminal aminomethylcoumarin (AMC), the fluorescence of which is measured. The determinations are carried out in microtitre plates.
Test substances are dissolved in dimethyl sulphoxide and serially diluted in dimethyl sulphoxide (3000 μM to 0.0078 μM; resulting final concentrations in the test: 50 μM to 0.00013 μM). In each case 1 μl of the diluted substance solutions is placed into the wells of white microtitre plates from Greiner (384 wells). Subsequently, the following are added successively: 20 μl of assay buffer (50 mmol/l Tris buffer pH 7.4; 100 mmol/l sodium chloride; 5 mmol/l calcium chloride; 0.1% bovine serum albumin) and 20 μl of factor XIa from Kordia (0.45 nM in assay buffer). After 15 min of incubation, the enzyme reaction is started by addition of 20 μl of the factor XIa substrate Boc-Glu(OBzl)-Ala-Arg-AMC dissolved in assay buffer (10 μM in assay buffer) from Bachem, the mixture is incubated at room temperature (22° C.) for 30 min and fluorescence is then measured (excitation: 360 nm, emission: 460 nm). The measured emissions of the test mixtures with test substance are compared to those of control mixtures without test substance (only dimethyl sulphoxide instead of test substance in dimethyl sulphoxide), and the IC50 values are calculated from the concentration/activity relationships.
For the molecule `Cc1cc(C(=O)N[C@H]2CC[C@H](O)CC2)ccc1-c1ccc(C[C@H](NC(=O)[C@H]2CC[C@H](CN)CC2)C(=O)Nc2ccc(-c3nnc(C(F)(F)C(F)(F)C(=O)O)[nH]3)cc2)cc1` (single isomer, unassigned; enantiomer 1) [Example 168], the IC50 stood at 0.5 nM.

On to `Cc1cc(C(=O)N[C@H]2CC[C@H](O)CC2)ccc1-c1ccc(C[C@@H](NC(=O)[C@H]2CC[C@H](CN)CC2)C(=O)Nc2ccc(-c3nnc(C(F)(F)C(F)(F)C(=O)O)[nH]3)cc2)cc1` (single isomer, unassigned; enantiomer 2) [Example 105], for which half-maximal inhibition (IC50) required 65 nM.

Turning to `Cc1cc(C(=O)NC2CCNCC2)ccc1-c1ccc(C[C@H](NC(=O)[C@H]2CC[C@H](CN)CC2)C(=O)Nc2ccc(-c3nn[nH]n3)cc2)cc1` [Example 1, 4′-[(2S)-2-({[trans-4-(Aminomethyl)cyclohexyl]carbonyl}amino)-3-oxo-3-{[4-(2H-tetrazol-5-yl)phenyl]amino}propyl]-2-methyl-N-(piperidin-4-yl)biphenyl-4-carboxamide hydrochloride], the IC50 came to 2 nM.

`CNC(=O)c1ccc(-c2ccc(C[C@H](NC(=O)[C@H]3CC[C@H](CN)CC3)C(=O)Nc3ccc(-c4nn[nH]n4)cc3)cc2)c(C)c1` [Example 19, 4′-[(2S)-2-({[trans-4-(Aminomethyl)cyclohexyl]carbonyl}amino)-3-oxo-3-{[4-(2H-tetrazol-5-yl)phenyl]amino}propyl]-N,2-dimethylbiphenyl-4-carboxamide] returned a concentration for half-maximal inhibition (IC50) of 2.9 nM.

As to `Cc1cc(C(=O)NC2CCNCC2)ccc1-c1ccc(C[C@H](NC(=O)[C@H]2CC[C@H](CN)CC2)C(=O)Nc2ccc(-c3nnc(CC(C)C)[nH]3)cc2)cc1` [Example 58, 4′-[(2S)-2-({[trans-4-(Aminomethyl)cyclohexyl]carbonyl}amino)-3-{[4-(3-isobutyl-4H-1,2,4-triazol-5-yl)phenyl]amino}-3-oxopropyl]-2-methyl-N-(piperidin-4-yl)biphenyl-4-carboxamide hydrochloride], the half-inhibitory concentration (IC50) turned out to be 41 nM.

`Cc1cc(C(=O)N[C@@H]2CCCCNC2=O)ccc1-c1ccc(C[C@H](NC(=O)[C@H]2CC[C@H](CN)CC2)C(=O)Nc2ccc(-c3nn[nH]n3)cc2)cc1` [Example 64, 4′-[(2S)-2-({[trans-4-(Aminomethyl)cyclohexyl]carbonyl}amino)-3-oxo-3-{[4-(2H-tetrazol-5-yl)phenyl]amino}propyl]-2-methyl-N-[(3R)-2-oxoazepan-3-yl]biphenyl-4-carboxamide hydrochloride] registered a half-inhibitory concentration (IC50) of 1.6 nM.

Molecule `Cc1cc(C(=O)NC(CN(C)C)CN(C)C)ccc1-c1ccc(C[C@H](NC(=O)[C@H]2CC[C@H](CN)CC2)C(=O)Nc2ccc(-c3nn[nH]n3)cc2)cc1` [Example 66, 4′-[(2S)-2-({[trans-4-(Aminomethyl)cyclohexyl]carbonyl}amino)-3-oxo-3-{[4-(2H-tetrazol-5-yl)phenyl]amino}propyl]-N-[1,3-bis(dimethylamino)propan-2-yl]-2-methylbiphenyl-4-carboxamide hydrochloride] returned an IC50 of 29 nM.

Turning to `COc1cc(C(=O)NC2CCC(N(C)C)CC2)ccc1-c1ccc(C[C@H](NC(=O)[C@H]2CC[C@H](CN)CC2)C(=O)Nc2ccc(-c3nn[nH]n3)cc2)cc1` (stereo partly drawn) [Example 67, 4′-[(2S)-2-({[trans-4-(Aminomethyl)cyclohexyl]carbonyl}amino)-3-oxo-3-{[4-(2H-tetrazol-5-yl)phenyl]amino}propyl]-N-[4-(dimethylamino)cyclohexyl]-2-methoxybiphenyl-4-carboxamide hydrochloride], the half-inhibitory concentration (IC50) came out at 4.6 nM.

`Cc1cc(C(=O)NC2CCC(N(C)C)CC2)ccc1-c1ccc(C[C@H](NC(=O)[C@H]2CC[C@H](CN)CC2)C(=O)Nc2ccc3c(=O)[nH][nH]c3c2)cc1` (stereo partly drawn) [Example 68, 4′-{(2S)-2-({[trans-4-(Aminomethyl)cyclohexyl]carbonyl}amino)-3-oxo-3-[(3-oxo-2,3-dihydro-1H-indazol-6-yl)amino]propyl}-N-[4-(dimethylamino)cyclohexyl]-2-methylbiphenyl-4-carboxamide hydrochloride] had a half-maximal inhibitory concentration (IC50) of 8.3 nM.

`Cc1cc(C(=O)N2CCS(=O)(=O)CC2)ccc1-c1ccc(C[C@H](NC(=O)[C@H]2CC[C@H](CN)CC2)C(=O)Nc2ccc(-c3nn[nH]n3)cc2)cc1` [Example 69, trans-4-(Aminomethyl)-N-[(2S)-3-{4′-[(1,1-dioxidothiomorpholin-4-yl)carbonyl]-2′-methyl-biphenyl-4-yl}-1-oxo-1-{[4-(2H-tetrazol-5-yl)phenyl]amino}propan-2-yl]cyclohexanecarboxamide hydrochloride] gave a concentration for half-maximal inhibition (IC50) of 2.4 nM.

`Cc1cc(C(=O)NC2CCC(N(C)C)CC2)ccc1-c1ccc(C[C@H](NC(=O)[C@H]2CC[C@H](CN)CC2)C(=O)Nc2ccc(-c3nn[nH]n3)cc2)cc1` (stereo partly drawn) [Example 70, 4′-[(2S)-2-({[trans-4-(Aminomethyl)cyclohexyl]carbonyl}amino)-3-oxo-3-{[4-(2H-tetrazol-5-yl)phenyl]amino}propyl]-N-[4-(dimethylamino)cyclohexyl]-2-methylbiphenyl-4-carboxamide hydrochloride] came in with an IC50 of 1.6 nM.

The molecule `COc1cc(C(=O)N[C@@H]2CCNC2)ccc1-c1ccc(C[C@H](NC(=O)[C@H]2CC[C@H](CN)CC2)C(=O)Nc2ccc(-c3nn[nH]n3)cc2)cc1` [Example 71, 4′-[(2S)-2-({[trans-4-(Aminomethyl)cyclohexyl]carbonyl}amino)-3-oxo-3-{[4-(2H-tetrazol-5-yl)phenyl]amino}propyl]-2-methoxy-N-[(3R)-pyrrolidin-3-yl]biphenyl-4-carboxamide hydrochloride] had a 50% inhibitory concentration (IC50) of 7.4 nM.

In turn, `Cc1cc(C(=O)N[C@H]2CCCN(C)C2)ccc1-c1ccc(C[C@H](NC(=O)[C@H]2CC[C@H](CN)CC2)C(=O)Nc2ccc(-c3nn[nH]n3)cc2)cc1` [Example 73, 4′-[(2S)-2-({[trans-4-(Aminomethyl)cyclohexyl]carbonyl}amino)-3-oxo-3-{[4-(2H-tetrazol-5-yl)phenyl]amino}propyl]-2-methyl-N-[(3S)-1-methylpiperidin-3-yl]biphenyl-4-carboxamide hydrochloride] displayed an IC50 of 3.4 nM.

`Cc1cc(C(=O)NC2CCCNC2=O)ccc1-c1ccc(C[C@H](NC(=O)[C@H]2CC[C@H](CN)CC2)C(=O)Nc2ccc(-c3nc(C(F)F)n[nH]3)cc2)cc1` (stereo partly drawn) [Example 74, 4′-[(2S)-2-({[trans-4-(Aminomethyl)cyclohexyl]carbonyl}amino)-3-({4-[3-(difluoromethyl)-1H-1,2,4-triazol-5-yl]phenyl}amino)-3-oxopropyl]-2-methyl-N-(2-oxopiperidin-3-yl)biphenyl-4-carboxamide hydrochloride]: the IC50 is 1.3 nM.

As to `Cc1cc(C(=O)N[C@@H]2CCNC2)ccc1-c1ccc(C[C@H](NC(=O)[C@H]2CC[C@H](CN)CC2)C(=O)Nc2ccc(-c3nc(C(F)(F)C(F)(F)F)n[nH]3)cc2)cc1` [Example 75, 4′-[(2S)-2-({[trans-4-(Aminomethyl)cyclohexyl]carbonyl}amino)-3-oxo-3-({4-[3-(pentafluoroethyl)-1H-1,2,4-triazol-5-yl]phenyl}amino)propyl]-2-methyl-N-[(3R)-pyrrolidin-3-yl]biphenyl-4-carboxamide hydrochloride], the concentration for half-maximal inhibition (IC50) was determined as 2.5 nM.

For the origin of these results see patent US20160272617A1, “SUBSTITUTED PHENYLALANINE DERIVATIVES” (BAYER PHARMA AKTIENGESELLSCHAFT, priority 2013, published 2016).
